Where two headings read alike, the source gives them in different places.
Columns and labels:
[1] = clinical drug-drug interaction study: effect of alisporivir on buspirone (sensitive CYP3A4 substrate) pharmacokinetics; settings: alisporivir 600 mg BID for 7 days; single oral 5 mg dose of buspirone
[2] = clinical drug-drug interaction study: effect of alisporivir on azithromycin (CYP3A4 substrate) pharmacokinetics; assay type: in vivo, human; settings: single 1200 mg oral dose of alisporivir; single oral 1000 mg dose of azithromycin
[3] = clinical drug-drug interaction study: effect of alisporivir on boceprevir (CYP3A4 and P-gp substrate) pharmacokinetics; assay type: in vivo; settings: healthy human subjects; alisporivir 600 mg BID for 7 days and 600 mg QD for one additional day; single 400 mg oral dose of boceprevir
Method: The T1/2 of boceprevir was similar when boceprevir was administered with alisporivir.

[4] = clinical drug-drug interaction study: effect of alisporivir on digoxin (P-gp substrate) pharmacokinetics; assay type: in vivo, human; settings: alisporivir 600 mg BID for 7 days; single oral 0.25 mg dose of digoxin
Method: Digoxin 0.25 mg is generally initiated in patients under the age of 70 with good renal function. When digoxin is taken with food high in bran fiber, the amount absorbed from an oral dose may be reduced.

[5] = human, in vivo, po
[6] = human, in vivo, po; remark: listed apart in the source
[7] = alisporivir 600 mg BID for 10 days; single 40 mg oral dose of atorvastatin
[8] = clinical drug-drug interaction study: effect of alisporivir on telaprevir (CYP3A4 and P-gp substrate) pharmacokinetics; assay type: in vivo; settings: healthy human subjects; alisporivir 600 mg BID for 7 day and 600 mg QD for one additional day; single 375 mg oral dose of telaprevir
Method: The T1/2 of telaprevir was longer when telaprevir was administered with alisporivir.

[9] = effect of alisporivir on circulating bilirubin concentrations in healthy subjects; settings: 40 mg valsartan before and after alisporivir 600 mg BID 7 days then QD
[10] = clinical drug-drug interaction study: effect of alisporivir on valsartan (CYP2C9, OATP1B1, OATP1B3, MRP2 substrate) pharmacokinetics; settings: alisporivir 600 mg BID for 7 days; single oral 40 mg dose of valsartan

For c1cnc(N2CCNCC2)nc1 [1-PP], the “AUC increase (metabolite of buspirone)” value [1] was 12-15%.

For CC[C@H]1OC(=O)[C@H](C)[C@@H](O[C@H]2C[C@@](C)(OC)[C@@H](O)[C@H](C)O2)[C@H](C)[C@@H](O[C@@H]2O[C@H](C)C[C@H](N(C)C)[C@H]2O)[C@](C)(O)C[C@@H](C)CN(C)[C@H](C)[C@@H](O)[C@]1(C)O [azithromycin], the “increase in the AUC” value [2] was 32-39%.

For CC(C)(C)NC(=O)N[C@H](C(=O)N1C[C@H]2[C@@H]([C@H]1C(=O)NC(CC1CCC1)C(=O)C(N)=O)C2(C)C)C(C)(C)C (stereo partly shown) [boceprevir], the “T1/2 when administered with alisporivir” value [3] was “similar” and the “increase in the Cmax” value [3] was roughly 47%.

For C[C@H]1O[C@@H](O[C@H]2[C@@H](O)C[C@H](O[C@H]3[C@@H](O)C[C@H](O[C@H]4CC[C@@]5(C)[C@H](CC[C@@H]6[C@@H]5C[C@@H](O)[C@]5(C)[C@@H](C7=CC(=O)OC7)CC[C@]65O)C4)O[C@@H]3C)O[C@@H]2C)C[C@H](O)[C@@H]1O [digoxin], the “effect of alisporivir on renal clearance” value [4] was “did not affect”, the “increase in Cmax” value [4] was roughly 1.8 fold and the “increase in the AUC” value [4] was roughly 2.6 fold.

For CN(C)CCC[C@@]1(c2ccc(F)cc2)OCc2cc(C#N)ccc21 [escitalopram], the “T1/2 when administered with alisporivir” value [5] was “similar”.

In the case of CC(C)n1c(/C=C/C(O)CC(O)CC(=O)O)c(-c2ccc(F)cc2)c2ccccc21 (stereo not shown) [fluvastatin], the “T1/2 when administered with alisporivir” value [6] is reported as “longer”.

In the case of CC(C)c1c(C(=O)Nc2ccccc2O)c(-c2ccccc2)c(-c2ccc(F)cc2)n1CCC(O)CC(O)CC(=O)O (stereo not shown) [o-OH-atorvastatin], the “increase in exposure (AUC)” value [7] is reported as roughly 9 fold and the “increase in exposure (Cmax)” value [7] is reported as “approximately 7 fold”.

For CCC[C@H](NC(=O)[C@@H]1[C@H]2CCC[C@H]2CN1C(=O)[C@@H](NC(=O)[C@@H](NC(=O)c1cnccn1)C1CCCCC1)C(C)(C)C)C(=O)C(=O)NC1CC1 [telaprevir], the “T1/2 when administered with alisporivir” value [8] was “longer” and the “increase in the Cmax” value [8] was roughly 2.4 fold.

In the case of CCCCC(=O)N(Cc1ccc(-c2ccccc2-c2nnn[nH]2)cc1)[C@H](C(=O)O)C(C)C [valsartan], the Valsartan exposure increased [9] is reported as roughly 6 fold, the “increase in Cmax” value [10] is reported as “approximately 2.3 fold” and the “increase in the AUC” value [10] is reported as roughly 6 fold.
